In publication PMC3907537, “Evaluation of the Endothelin Receptor Antagonists Ambrisentan, Bosentan, Macitentan, and Sitaxsentan as Hepatobiliary Transporter Inhibitors and Substrates in Sandwich-Cultured Human Hepatocytes” (PLoS ONE, 2014):
Read-outs that look alike come from different tables or passages of the source.

What was measured:
[1] = system: NTCP; set-up: method as in PMID 20628435; conditions: concentrations tested 2, 20, and 100 µM, Hartman et al. ref 29; cited from earlier work
[2] = biological target: T1, OATP1B1 (Homo sapiens, UniProt Q9Y6L6); experiment: OATP1B1 inhibition, Fluo 3 uptake in transfected CHO cells; assay type: cell-based
T1 construct: host or cells: CHO
T1 sequence (Q9Y6L6 1-691): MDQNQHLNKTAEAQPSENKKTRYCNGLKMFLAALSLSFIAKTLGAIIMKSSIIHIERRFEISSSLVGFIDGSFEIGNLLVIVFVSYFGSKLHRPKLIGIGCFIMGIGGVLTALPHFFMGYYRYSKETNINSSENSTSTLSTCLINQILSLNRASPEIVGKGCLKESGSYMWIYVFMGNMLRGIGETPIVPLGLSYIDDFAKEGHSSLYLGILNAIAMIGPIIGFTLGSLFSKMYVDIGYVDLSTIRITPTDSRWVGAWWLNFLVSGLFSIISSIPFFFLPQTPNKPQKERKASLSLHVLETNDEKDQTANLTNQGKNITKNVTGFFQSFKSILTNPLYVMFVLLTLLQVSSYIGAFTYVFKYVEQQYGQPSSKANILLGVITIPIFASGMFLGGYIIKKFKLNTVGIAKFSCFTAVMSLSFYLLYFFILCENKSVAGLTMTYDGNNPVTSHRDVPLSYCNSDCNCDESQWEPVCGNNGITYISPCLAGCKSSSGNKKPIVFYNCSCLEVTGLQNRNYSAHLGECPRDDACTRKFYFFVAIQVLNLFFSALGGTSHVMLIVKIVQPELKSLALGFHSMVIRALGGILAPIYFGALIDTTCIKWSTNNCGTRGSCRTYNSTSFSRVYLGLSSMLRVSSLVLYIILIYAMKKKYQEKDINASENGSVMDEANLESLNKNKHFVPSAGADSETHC
Excerpt: (§1) Chinese Hamster Ovary (CHO) cells were obtained from Professor B. Stieger’s laboratory at University of Zurich, Zurich, Switzerland. Madin-Darby Canine Kidney strain II (MDCKII) cells were obtained from Nederlands Kanker Instituut (NKI), Amsterdam, Netherlands. NTCP-CHO cells, BSEP and MRP2 membrane vesicles were developed and validated at Solvo Biotechnology, Budaors, Hungary.
CHO cells, either wild type or transfected with the genes encoding human NTCP, OATP1B1 and OATP1B3, were maintained in Dulbecco’s Modification of Eagle’s Medium (DMEM) containing 1,000 mg/L D-glucose, L-glutamine, 25 mM HEPES buffer, 110 mg/L sodium pyruvate, 1% Penicillin/Streptomycin, 10% fetal bovine serum (FBS), 0.05 mg/mL L proline and 0.5 mg/mL of geneticin G-418. Cells were maintained in incubators set at 37°C, 90% humidity and 5% CO2. OATP1B1 and OATP1B3 over-expressing cells were seeded in BioCoat Poly-D-Lysine coated 96-well black cell culture plates with clear bottoms at a density of 1×10^5 cells/well. Sodium butyrate (10 mM) was added to the OATP1B1 and OATP1B3 cells once seeded to increase the protein expression level and the cells were grown to confluence overnight. The assay buffer contained 142 mM NaCl, 5 mM KCl, 1 mM KH2PO4, 1.2 mM MgSO4, 1.5 mM CaCl2, 5 mM Glucose and 12.5 mM HEPES (pH 7.4). After removal of the media and before adding test compounds, the cells were washed twice with 37°C assay buffer followed by a 0.5 h pre-incubation with assay buffer. […] Wells were analyzed for Fluo 3 fluorescence at an excitation of 485 nm and emission of 530 nm. Inhibition of NTCP was studied using similar conditions to those described for OATP1B1 and OATP1B3 except that inhibition of the uptake ^3H taurocholate into transfected CHO cells was monitored using radioactive scintillation counting.
All assays were performed in duplicate. […] IC50 values were calculated using non-linear fitting of % inhibition versus concentration to a sigmoidal curve with a variable Hill Coefficient using GraphPad Prism 5 (GraphPad Software Inc., San Diego, CA).

[3] = biological target: T2, MRP2 (Homo sapiens, UniProt Q92887); experiment: MRP2 inhibition, estradiol-17-beta-glucuronide transport in Sf9 membrane vesicles; assay type: biochemical; conditions: E217βG 0.2 µM, single experiment in duplicate, tested 0.14–100 µM
T2 construct: purchased Solvo Biotechnology, Budaors, Hungary; host or cells: Sf9 insect cells (membrane vesicles)
Excerpt: as §1
BSEP and MRP2 inhibition was studied in membrane vesicles isolated from sf9 insect cells overexpressing the respective transporters. Vesicular transport inhibition assays used test compounds incubated with membrane vesicle preparations (total protein: 50 µg/well) and probe substrates, taurocholate (2 µM) for BSEP or Estradiol-17-beta-glucuronide (0.2 µM) for MRP2, in the absence or presence of ATP. Reaction mixtures were preincubated for 15 min at 37°C. Reactions were started by the addition of 25 µL of 12 mM MgATP or assay buffer (for background controls), preincubated separately. Reactions were stopped after 5 min by the addition of 200 µL of ice-cold washing buffer and immediate filtration via glass fiber filters mounted to a 96-well plate (filter plate). The filters were washed, dried and the amount of substrate inside the filtered vesicles determined by liquid scintillation. Cyclosporin A (20 µM) or benzbromarone (100 µM), for BSEP or MRP2, respectively, were used as positive control inhibitors. Control membranes lacking transporter expression were used as negative control.
All assays were performed in duplicate. IC50 was defined as the test article concentration needed to inhibit the maximal transporter specific accumulation by 50%. IC50 values were calculated using non-linear fitting of % inhibition versus concentration to a sigmoidal curve with a variable Hill Coefficient using GraphPad Prism 5 (GraphPad Software Inc., San Diego, CA).

[4] = CHO cells, Fluo 3, mean ± SD of 3 independent studies in duplicate, tested 0.14–100 µM, read-out: OATP1B1 IC50

T2 sequence (Q92887 whole entry): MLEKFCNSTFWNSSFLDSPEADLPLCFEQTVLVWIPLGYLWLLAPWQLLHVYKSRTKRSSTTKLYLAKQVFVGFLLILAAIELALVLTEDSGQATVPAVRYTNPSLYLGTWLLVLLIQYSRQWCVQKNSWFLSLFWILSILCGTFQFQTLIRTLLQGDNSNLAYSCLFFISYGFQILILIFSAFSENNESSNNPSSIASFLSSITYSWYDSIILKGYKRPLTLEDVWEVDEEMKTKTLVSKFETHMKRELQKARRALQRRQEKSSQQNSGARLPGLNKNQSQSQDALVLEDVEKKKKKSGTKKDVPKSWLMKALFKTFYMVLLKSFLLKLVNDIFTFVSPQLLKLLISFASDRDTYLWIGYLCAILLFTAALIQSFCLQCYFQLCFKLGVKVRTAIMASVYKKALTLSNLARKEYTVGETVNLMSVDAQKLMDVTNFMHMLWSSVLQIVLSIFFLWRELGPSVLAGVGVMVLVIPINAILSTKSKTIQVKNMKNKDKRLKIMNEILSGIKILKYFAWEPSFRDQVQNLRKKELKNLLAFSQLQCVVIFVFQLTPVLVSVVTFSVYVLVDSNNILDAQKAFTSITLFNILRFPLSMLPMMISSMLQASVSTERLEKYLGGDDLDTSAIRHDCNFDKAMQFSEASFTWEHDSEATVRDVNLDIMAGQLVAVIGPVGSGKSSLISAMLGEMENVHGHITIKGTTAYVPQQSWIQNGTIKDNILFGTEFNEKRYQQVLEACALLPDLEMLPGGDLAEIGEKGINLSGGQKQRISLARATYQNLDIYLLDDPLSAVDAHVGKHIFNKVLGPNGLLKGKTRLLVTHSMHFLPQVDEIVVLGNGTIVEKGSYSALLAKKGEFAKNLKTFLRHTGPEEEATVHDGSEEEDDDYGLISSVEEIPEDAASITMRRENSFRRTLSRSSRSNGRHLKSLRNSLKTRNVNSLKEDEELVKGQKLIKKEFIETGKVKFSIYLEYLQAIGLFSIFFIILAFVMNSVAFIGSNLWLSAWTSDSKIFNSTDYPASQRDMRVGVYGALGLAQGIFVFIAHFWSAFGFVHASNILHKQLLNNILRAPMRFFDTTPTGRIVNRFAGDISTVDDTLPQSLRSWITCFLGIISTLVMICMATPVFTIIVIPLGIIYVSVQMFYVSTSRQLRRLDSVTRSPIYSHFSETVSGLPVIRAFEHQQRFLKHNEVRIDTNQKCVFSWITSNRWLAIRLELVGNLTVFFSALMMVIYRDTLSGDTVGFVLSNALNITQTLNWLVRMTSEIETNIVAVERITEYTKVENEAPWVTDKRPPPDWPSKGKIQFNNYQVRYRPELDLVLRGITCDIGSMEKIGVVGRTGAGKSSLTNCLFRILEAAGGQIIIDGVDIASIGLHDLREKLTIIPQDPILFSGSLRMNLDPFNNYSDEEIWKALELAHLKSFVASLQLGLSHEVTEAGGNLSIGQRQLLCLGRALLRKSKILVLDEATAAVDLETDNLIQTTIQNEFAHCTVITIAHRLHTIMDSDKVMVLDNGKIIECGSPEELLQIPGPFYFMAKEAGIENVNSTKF

Row | Compound | inhibition of NTCP [1] | IC50 [2, 4] | IC50 [3] | IC50 [2]
1 | Cc1cc2c(cc1CC(=O)c1sccc1S(=O)(=O)Nc1onc(C)c1Cl)OCO2 [sitaxsentan] | inhibited | – | – | –
2 | CCCNS(=O)(=O)Nc1ncnc(OCCOc2ncc(Br)cn2)c1-c1ccc(Br)cc1 [macitentan] | – | 2 ± 0.3 µM | > 100 µM | –
3 | COC(c1ccccc1)(c1ccccc1)[C@H](Oc1nc(C)cc(C)n1)C(=O)O [ambrisentan] | did not | – | ~75 µM | 47 ± 21.3 µM
4 | COc1ccccc1Oc1c(NS(=O)(=O)c2ccc(C(C)(C)C)cc2)nc(-c2ncccn2)nc1OCCO [bosentan] | inhibited | 5 ± 2 µM | > 100 µM | –
